# Experimental data: PMC10924921, “Mi-2β promotes immune evasion in melanoma by activating EZH2 methylation” (Nature Communications, 2024)
# Columns and labels:
# Assay in all cases: biochemical
# Set-up in all cases: KINOMEscan active-site competition binding panel (468 kinase assays), per cent of control at 1000 nM
# Conditions in all cases: KINOMEscan per cent of control (binding competition); read-out: Percent Control
# ALK = ALK (Homo sapiens, UniProt Q9UM73)
# Description: (§1) Figure S7 / Percent Control
# CAMK2B = CAMK2B (Homo sapiens, UniProt Q13554)
# Description: as §1
# CAMKK2 = CAMKK2 (Homo sapiens, UniProt Q96RR4)
# Description: as §1
# CDK4-cyclinD3 = target: T1, CDK4-cyclinD3 (Homo sapiens, UniProt P11802)
# T1 construct: cyclinD3
# Description: as §1
# CDK5 = CDK5 (Homo sapiens, UniProt Q00535)
# Chain of CDK5 (Q00535 whole entry): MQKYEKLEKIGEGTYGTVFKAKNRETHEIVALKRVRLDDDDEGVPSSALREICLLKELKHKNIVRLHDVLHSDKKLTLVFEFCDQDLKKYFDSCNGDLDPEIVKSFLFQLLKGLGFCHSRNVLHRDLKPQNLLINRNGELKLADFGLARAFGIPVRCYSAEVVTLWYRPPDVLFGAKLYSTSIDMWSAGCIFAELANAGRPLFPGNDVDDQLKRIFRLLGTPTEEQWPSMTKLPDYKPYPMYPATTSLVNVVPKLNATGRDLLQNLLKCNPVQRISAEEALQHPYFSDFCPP
# Description: as §1
# CDKL3 = CDKL3 (Homo sapiens, UniProt Q8IVW4)
# Description: as §1
# EGFR(L861Q) = EGFR(L861Q) (Homo sapiens, UniProt P00533, L861Q)
# Description: as §1
# EPHB4 = EPHB4 (Homo sapiens, UniProt P54760)
# Description: as §1
# FAK = target: T2, FAK (Homo sapiens, UniProt Q05397)
# T2 construct: gene PTK2
# T2 sequence (Q05397 whole entry): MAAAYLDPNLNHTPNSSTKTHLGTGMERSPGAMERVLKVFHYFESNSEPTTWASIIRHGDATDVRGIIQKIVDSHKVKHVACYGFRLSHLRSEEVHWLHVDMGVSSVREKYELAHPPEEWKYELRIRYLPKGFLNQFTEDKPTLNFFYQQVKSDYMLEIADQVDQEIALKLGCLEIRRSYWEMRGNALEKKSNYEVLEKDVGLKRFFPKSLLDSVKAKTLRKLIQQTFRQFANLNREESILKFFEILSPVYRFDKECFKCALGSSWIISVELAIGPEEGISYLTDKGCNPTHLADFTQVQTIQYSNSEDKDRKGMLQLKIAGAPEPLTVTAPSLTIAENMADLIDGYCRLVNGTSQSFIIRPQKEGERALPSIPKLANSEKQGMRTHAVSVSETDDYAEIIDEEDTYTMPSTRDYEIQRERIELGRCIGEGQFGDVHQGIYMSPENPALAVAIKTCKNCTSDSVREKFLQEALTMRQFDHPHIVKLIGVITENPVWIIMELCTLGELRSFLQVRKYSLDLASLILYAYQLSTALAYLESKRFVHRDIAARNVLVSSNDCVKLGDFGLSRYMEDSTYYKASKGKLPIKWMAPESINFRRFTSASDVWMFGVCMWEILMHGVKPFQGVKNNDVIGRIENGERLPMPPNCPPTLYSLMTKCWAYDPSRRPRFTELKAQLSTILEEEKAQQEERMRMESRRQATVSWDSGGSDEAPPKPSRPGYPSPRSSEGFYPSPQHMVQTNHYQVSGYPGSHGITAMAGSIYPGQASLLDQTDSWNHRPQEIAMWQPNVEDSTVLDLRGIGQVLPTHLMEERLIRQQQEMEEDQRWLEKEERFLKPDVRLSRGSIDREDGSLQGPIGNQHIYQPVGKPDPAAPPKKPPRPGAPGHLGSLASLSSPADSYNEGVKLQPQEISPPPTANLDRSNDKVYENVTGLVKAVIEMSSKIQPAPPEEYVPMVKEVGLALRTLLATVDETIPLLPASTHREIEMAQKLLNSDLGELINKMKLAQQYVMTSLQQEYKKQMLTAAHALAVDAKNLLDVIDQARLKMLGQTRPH
# Description: as §1
# FER = FER (Homo sapiens, UniProt P16591)
# Description: as §1
# HUNK = HUNK (Homo sapiens, UniProt P57058)
# Description: as §1
# ITK = ITK (Homo sapiens, UniProt Q08881)
# Description: as §1
# JNK2 = target: T3, JNK2 (Homo sapiens, UniProt P45984)
# T3 construct: gene MAPK9
# Description: as §1
# KIT(D816H) = KIT(D816H) (Homo sapiens, UniProt P10721, D816H)
# Description: as §1
# LRRK2 = LRRK2 (Homo sapiens, UniProt Q5S007)
# Description: as §1
# MEK1 = target: T4, MEK1 (Homo sapiens, UniProt Q02750)
# T4 construct: gene MAP2K1
# Description: as §1
# MEK5 = target: T5, MEK5 (Homo sapiens, UniProt Q13163)
# T5 construct: gene MAP2K5
# T5 sequence (Q13163 whole entry): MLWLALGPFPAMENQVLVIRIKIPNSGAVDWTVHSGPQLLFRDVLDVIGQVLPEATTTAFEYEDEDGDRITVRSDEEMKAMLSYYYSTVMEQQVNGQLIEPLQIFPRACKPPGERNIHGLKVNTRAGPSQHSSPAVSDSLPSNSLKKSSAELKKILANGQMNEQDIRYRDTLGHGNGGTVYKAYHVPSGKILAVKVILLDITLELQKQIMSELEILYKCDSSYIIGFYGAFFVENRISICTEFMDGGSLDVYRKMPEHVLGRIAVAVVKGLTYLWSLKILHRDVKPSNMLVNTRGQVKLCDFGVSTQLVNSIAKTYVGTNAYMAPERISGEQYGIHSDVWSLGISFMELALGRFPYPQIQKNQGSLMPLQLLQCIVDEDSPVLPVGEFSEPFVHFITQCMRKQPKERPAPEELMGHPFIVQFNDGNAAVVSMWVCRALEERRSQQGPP
# Description: as §1
# PIK3CA(C420R) = PIK3CA(C420R) (Homo sapiens, UniProt P42336, C420R)
# Description: as §1
# PIK3CA(E545K) = PIK3CA(E545K) (Homo sapiens, UniProt P42336, E545K)
# Description: as §1
# PIK3CG = PIK3CG (Homo sapiens, UniProt P48736)
# Chain of PIK3CG (P48736 whole entry): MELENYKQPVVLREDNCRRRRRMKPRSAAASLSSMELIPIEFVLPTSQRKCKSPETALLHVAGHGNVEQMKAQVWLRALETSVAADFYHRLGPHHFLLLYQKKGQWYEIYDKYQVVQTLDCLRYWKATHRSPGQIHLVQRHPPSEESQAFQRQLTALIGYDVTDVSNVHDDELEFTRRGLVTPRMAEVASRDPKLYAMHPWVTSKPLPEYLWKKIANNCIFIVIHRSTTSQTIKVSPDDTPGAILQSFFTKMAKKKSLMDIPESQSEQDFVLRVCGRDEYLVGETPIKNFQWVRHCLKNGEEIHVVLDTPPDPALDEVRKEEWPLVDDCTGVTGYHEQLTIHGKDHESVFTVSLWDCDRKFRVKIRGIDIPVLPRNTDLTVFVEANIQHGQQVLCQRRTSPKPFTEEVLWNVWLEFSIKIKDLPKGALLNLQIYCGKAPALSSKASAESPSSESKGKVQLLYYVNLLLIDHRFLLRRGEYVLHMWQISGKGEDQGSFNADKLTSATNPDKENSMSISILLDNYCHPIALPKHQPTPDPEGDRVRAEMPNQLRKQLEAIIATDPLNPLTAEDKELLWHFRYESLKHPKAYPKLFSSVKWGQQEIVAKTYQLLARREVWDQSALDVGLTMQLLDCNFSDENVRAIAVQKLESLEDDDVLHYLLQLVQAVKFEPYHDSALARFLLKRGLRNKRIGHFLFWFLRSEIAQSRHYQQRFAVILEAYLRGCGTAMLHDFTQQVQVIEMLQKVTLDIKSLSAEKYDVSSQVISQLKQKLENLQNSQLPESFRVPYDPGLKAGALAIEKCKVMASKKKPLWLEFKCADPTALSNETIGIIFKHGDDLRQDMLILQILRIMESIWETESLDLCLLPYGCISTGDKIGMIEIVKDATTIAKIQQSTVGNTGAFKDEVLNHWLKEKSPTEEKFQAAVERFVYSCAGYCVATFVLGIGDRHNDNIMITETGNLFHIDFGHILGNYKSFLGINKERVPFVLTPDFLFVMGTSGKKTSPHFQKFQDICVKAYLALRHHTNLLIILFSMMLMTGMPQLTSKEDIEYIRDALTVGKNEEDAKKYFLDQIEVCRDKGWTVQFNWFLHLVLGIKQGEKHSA
# Description: as §1
# PLK2 = PLK2 (Homo sapiens, UniProt Q9NYY3)
# Chain of PLK2 (Q9NYY3 whole entry): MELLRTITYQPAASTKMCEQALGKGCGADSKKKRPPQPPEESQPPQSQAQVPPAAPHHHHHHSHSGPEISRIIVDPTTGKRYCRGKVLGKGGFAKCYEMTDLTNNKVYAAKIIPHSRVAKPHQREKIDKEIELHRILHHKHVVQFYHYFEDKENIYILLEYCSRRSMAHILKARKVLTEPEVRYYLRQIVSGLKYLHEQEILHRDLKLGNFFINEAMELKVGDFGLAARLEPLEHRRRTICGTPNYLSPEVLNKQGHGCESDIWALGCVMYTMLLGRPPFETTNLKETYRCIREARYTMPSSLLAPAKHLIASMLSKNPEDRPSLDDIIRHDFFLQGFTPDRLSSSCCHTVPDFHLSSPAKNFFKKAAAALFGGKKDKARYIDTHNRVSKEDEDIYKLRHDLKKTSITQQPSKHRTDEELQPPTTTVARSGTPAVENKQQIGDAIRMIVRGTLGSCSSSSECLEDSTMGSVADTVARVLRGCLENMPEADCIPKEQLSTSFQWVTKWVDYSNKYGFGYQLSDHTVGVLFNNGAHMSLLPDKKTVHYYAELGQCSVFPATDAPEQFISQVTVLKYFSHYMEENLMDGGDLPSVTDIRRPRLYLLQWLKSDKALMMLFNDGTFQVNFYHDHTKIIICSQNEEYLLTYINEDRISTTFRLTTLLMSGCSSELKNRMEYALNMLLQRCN
# Description: as §1
# SLK = SLK (Homo sapiens, UniProt Q9H2G2)
# Chain of SLK (Q9H2G2 whole entry): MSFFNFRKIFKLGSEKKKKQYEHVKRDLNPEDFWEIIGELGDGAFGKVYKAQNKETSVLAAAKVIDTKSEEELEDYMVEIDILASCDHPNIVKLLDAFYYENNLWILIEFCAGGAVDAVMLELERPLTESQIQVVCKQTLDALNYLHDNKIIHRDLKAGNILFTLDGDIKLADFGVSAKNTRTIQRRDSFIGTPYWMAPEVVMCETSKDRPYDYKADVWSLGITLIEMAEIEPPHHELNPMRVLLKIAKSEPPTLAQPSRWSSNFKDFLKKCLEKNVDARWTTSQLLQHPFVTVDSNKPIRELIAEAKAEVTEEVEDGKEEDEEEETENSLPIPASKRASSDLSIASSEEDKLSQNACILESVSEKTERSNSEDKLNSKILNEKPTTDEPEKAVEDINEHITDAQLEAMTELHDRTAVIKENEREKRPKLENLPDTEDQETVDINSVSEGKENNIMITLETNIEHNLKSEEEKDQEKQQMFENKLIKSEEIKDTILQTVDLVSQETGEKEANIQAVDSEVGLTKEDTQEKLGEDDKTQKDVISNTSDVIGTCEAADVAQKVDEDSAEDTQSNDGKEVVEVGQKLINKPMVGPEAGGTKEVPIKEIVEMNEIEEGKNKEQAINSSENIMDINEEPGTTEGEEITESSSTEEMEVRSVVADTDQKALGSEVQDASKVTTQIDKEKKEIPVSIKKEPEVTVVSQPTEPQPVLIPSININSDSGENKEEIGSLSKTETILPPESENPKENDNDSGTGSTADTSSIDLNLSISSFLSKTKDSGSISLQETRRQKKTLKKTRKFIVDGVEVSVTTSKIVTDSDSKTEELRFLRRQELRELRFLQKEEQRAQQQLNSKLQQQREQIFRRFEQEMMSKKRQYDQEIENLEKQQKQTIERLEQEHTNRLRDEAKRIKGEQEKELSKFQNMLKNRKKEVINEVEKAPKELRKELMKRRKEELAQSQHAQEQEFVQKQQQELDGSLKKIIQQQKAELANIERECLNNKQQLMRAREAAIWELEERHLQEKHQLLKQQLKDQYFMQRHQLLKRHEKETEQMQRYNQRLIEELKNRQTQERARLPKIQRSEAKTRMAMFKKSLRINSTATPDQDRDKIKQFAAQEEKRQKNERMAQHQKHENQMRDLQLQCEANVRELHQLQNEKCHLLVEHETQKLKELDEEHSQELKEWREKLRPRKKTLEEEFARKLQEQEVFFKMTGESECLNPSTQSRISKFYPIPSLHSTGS
# Description: as §1
# SRC = SRC (Homo sapiens, UniProt P12931)
# Description: as §1
# TSSK3 = TSSK3 (Homo sapiens, UniProt Q96PN8)
# Description: as §1
# TTK = TTK (Homo sapiens, UniProt P33981)
# Description: as §1
smiles,measurement,setting,value
Cn1c(=O)[nH]c2ccc(-c3cccc(C(=O)NC4CCn5ccnc5C4)c3)cc21 (stereo not shown) [Z36-MP5],remaining binding at 1 µM,ALK,51%
same,remaining binding at 1 µM,CAMK2B,91%
same,remaining binding at 1 µM,CAMKK2,51%
same,remaining binding at 1 µM,CDK4-cyclinD3,54%
same,remaining binding at 1 µM,CDK5,55%
same,remaining binding at 1 µM,CDKL3,59%
same,remaining binding at 1 µM,EGFR(L861Q),69%
same,remaining binding at 1 µM,EPHB4,84%
same,remaining binding at 1 µM,FAK,88%
same,remaining binding at 1 µM,FER,90%
same,remaining binding at 1 µM,HUNK,74%
same,remaining binding at 1 µM,ITK,96%
same,remaining binding at 1 µM,JNK2,54%
same,remaining binding at 1 µM,KIT(D816H),78%
same,remaining binding at 1 µM,LRRK2,71%
same,remaining binding at 1 µM,MEK1,63%
same,remaining binding at 1 µM,MEK5,60%
same,remaining binding at 1 µM,PIK3CA(C420R),91%
same,remaining binding at 1 µM,PIK3CA(E545K),48%
same,remaining binding at 1 µM,PIK3CG,83%
same,remaining binding at 1 µM,PLK2,55%
same,remaining binding at 1 µM,SLK,100%
same,remaining binding at 1 µM,SRC,97%
same,remaining binding at 1 µM,TSSK3,42%
same,remaining binding at 1 µM,TTK,91%
